Test results: patent publication US20070225518A1, “5-Aminolevulinic acid salts and their use” (priority 2006, published 2007)
“Also recorded” adds a separate entry of the source.

Legend:
[1] = test system: Friend erythroleukemia cells (FLC); test: PpIX formation in FLC by fluorescence spectroscopy of extracted porphyrins; format: cell-based; conditions: 0.1 mg/ml, 4 h, excitation 410 nm, characteristic major peak at 633
Protocol: (§1) Cell culture. Friend erythroleukemia cells (FLC) and B16 melanoma cells were grown in a DMEM medium and RPMI 1640, respectively, (Biological Industries, Beit-Haemek, Israel), supplemented with 10% fetal calf serum and antibiotics, on tissue culture plates (Corning, Cambridge, Mass., USA) and incubated at 37° C. in a humidified atmosphere with 8% CO2. The cells were re-cultured twice a week.
(§2) Extraction of porphyrins from cells. FLC were incubated with 0.1 mg/ml ALA-HCl, AN 301, or AN 302 for 4 h. The cells were then washed and suspended in 750 μl glacial acetic acid. The cells were then sonicated on ice, at an amplitude of 1-2, three times for 45 sec, with 15 sec between successive sonications. Following the sonication, the lysate was transferred to glass test tubes containing 2.25 ml ethyl acetate, vigorously vortexed and centrifuged for 15 min at 3000 rpm. 2.6 ml of the supernatant were then transferred to glass test tubes containing 500 μl/1000 μl 1 M HCl and incubated overnight at 4° C. in the dark. Two phases formed, a lower inorganic phase and an upper organic phase containing the porphyrins. 300-700 μl from the organic phase was carefully removed with a Pasteur pipet. The porphyrins were then examined by HPLC and by spectroscopy.
Fluorometry of porphyrins. Fluorescence spectroscopy of the extrated porphyrins was examined using a SLM-Aminco spectrometer. Emission spectra were recorded following excitation at 410 nm.

[2] = test system: Friend erythroleukemia cells (FLC); test: Stability of stored ALA salt solutions, read out as porphyrin formation in FLC by flow cytometry; format: cell-based; conditions: for Stability of solutions on storage (porphyrin formation in cells): 0.1 mg/ml, 7 days at 4° C. and at 37° C.; for Stability in aqueous and non-aqueous media: aqueous as well as non-aqueous media such as PEG
Protocol: (§3) Flow cytometry for cellular PpIX. […] After the incubation, the cells were washed with Ca^+2—Mg+^2 free PBS and scraped off with a rubber policeman. After a 10 min centrifugation at 1100 RPM, the supernatant was decanted and the pellet was resuspended in 0.5 ml Ca^+2—Mg^+2 free PBS. The cell suspension was filtered and measured using a Fluorescence Activated Cell Sorter (Becton Dickinson FACS Calibur, Mountain View, Calif., USA). 10,000 cells were measured in each sample using an excitation wavelength of 488 nm, and emission >600 nm, respectively.
. […] (a), 37° C. (b), or after no storage (c). In controls (d), no ALA salt was presented to the cells. The cells were then examined for the presence of PpIX by flow cytometry at […]. […]

[3] = test system: Friend erythroleukemia cells (FLC); test: PpIX formation in FLC by HPLC analysis of extracted porphyrins; format: cell-based; conditions: 0.1 mg/ml, 4 h, retention time typical of PpIX
Protocol: as §1, §2
High pressure liquid chromatograph [HPLC] analysis of porphyrins. Extracted porphyrins were purified by HPLC on an Apex Presil C18 8μ column (Jones, Chromatography, Lakewood, Colo.) using a 0-50% linear gradient aetonitrile (+0.1% trifluoroacetic acid) over 40-min elution at 47% acetonitrile.

[4] = test system: Friend erythroleukemia cells (FLC); test: Flow cytometry for cellular PpIX after uptake of ALA salt; format: cell-based; conditions: stock solutions in H2O, PEG, buffer pH7
Protocol: as §1, §3
. Stock solutions of the ALA salt were made up in (a) H2O, (b) PEG, and (c) buffer pH7. […]. The ALA salt was then presented to the cells, and biosynthesis of PpIX was determined by flow cytometry. In controls (d) no ALA salt was presented to the cells. Typical results are shown in FIG. 3 in which the horizontal axis is florescence intensity (in arbitrary units), and the vertical axis is the number of cells having a given intensity level. […]

[5] = test system: B16 melanoma cells; test: ALA treatment, photosensitization and MTT assay; format: cell-based; conditions: 0.6 mM, 4 hr, irradiation 360-410 nm, MTT after 24 hr
Protocol: as §1
ALA treatment and photosensitization. […] At the end of the incubation period, the cells were irradiated using a Vilber Lourmat lamp, VL-206BL, delivering a power density of 22.5 mW at 360-410 nm. Light intensity was measured with a Nova photometer (Ophir Optronics, Jerusalem).
MTT assay. The effect of PDT on cell viability was measured after 24 hr. by a modified MTT assay which is based on the ability of live cells to cleave the tetrazolium ring to a molecule that absorbs at 590 nm in active mitochondria (Mosmann, 1983). 2×10^3 cells were grown in 96-well plates. The growth medium was replaced and 20 μl MTT (3-(4,5-dimethylthiazol-2-yl)-2,5-diphenyl tetrazolium bromide), 5 mg/ml PBS (Sigma, Chemical Co, St. Louis, Mo., USA), were added to each well. The cells were further incubated at 37° C. for 2 h. For lysis of the cells, N,N-dimethyformamide was added to the media for 5 hours and absorbance was then measured at 590 nm.

[6] = background statement, cited from earlier work
[7] = stock solution stored 7 days, 4° C.
[8] = stock solution stored 7 days, 37° C.

| SMILES | PpIX formation in the cells by spectroscopy [1] | Stability of solutions on storage (porphyrin formation in cells) ([2]; benzenesulfonate) | Stability in aqueous and non-aqueous media [2] | porphyrin formation in FLC by flow cytometry [2, 7] [arbitrary units] | porphyrin formation in FLC by flow cytometry [2, 8] [arbitrary units] | porphyrin formation in FLC by flow cytometry ([2]; stock solution, storage time 0) [arbitrary units] | Solubility in stock solution solvents (H2O, PEG, and buffer pH7) | Lipid solubility PEG (PEG) | Solubility in aqueous and non-aqueous media (aqueous as well as non-aqueous media such as PEG) | PpIX formation in the cells as determined by HPLC [3] | formation of PpIX inside the cells by flow cytometry [4] | Cell death / viability (MTT activity) following illumination [5] | Stability of solutions on storage (porphyrin formation in cells) [2] | Solubility in aqueous media ([6]; aqueous media) | Solubility in organic solvents including polyethylene glycol (PEG) ([6]; organic solvents including PEG) |
| --- | --- | --- | --- | --- | --- | --- | --- | --- | --- | --- | --- | --- | --- | --- | --- |
| NCC(=O)CCC(=O)O.O=S(=O)(O)c1ccccc1 [AN-301, 5-Amino4-oxopentanoic acid benzenesulfonate] | same porphyrin product was generated | stable; also recorded: retained significant activity | stable | 39 | 39 | 57 | soluble in each of these three solvents | soluble in PEG | soluble | same porphyrin (PpIX) was generated | leads to the formation of PpIX inside the cells | as effective as ALA-HCl in causing cell death | – | – | – |
| Cl.NCC(=O)CCC(=O)O [ALA-HCl, reference compound] | same porphyrin product was generated | – | – | 3.5 | 3.5 | 60 | – | – | – | same porphyrin (PpIX) was generated | – | – | completely degraded | soluble | insoluble |
| NCC(=O)CCC(=O)O.O=S(=O)(O)c1ccc2ccccc2c1 [AN-302, 5-Amino-4-oxopentanoic acid 2-naphtylsulfonate] | – | – | stable | – | – | – | – | – | – | – | – | – | – | – | – |
| NCC(=O)CCC(=O)O [AN-302, 5-Amino-4-oxopentanoic acid 2-naphtylsulfonate] | same porphyrin product was generated | – | – | 23 | 29 | 49 | – | – | – | same porphyrin (PpIX) was generated | leads to the formation of PpIX inside the cells | as effective as ALA-HCl in causing cell death | stable; also recorded: retained significant activity | – | – |
